This note sets out measurements from paper PMC5544527 (Journal of neuroscience research, 2015).

Common to all, as to assay type: cell-based
One assay deals with GABAA receptor α4β3δ (Homo sapiens, UniProt P28472+P48169). The assay can be described thus: whole-cell patch clamp, potentiation of GABA.
Assay [1] concerns the target T1, GABAA receptor α1β2γ2 (Homo sapiens, UniProt P14867+P47870). Description: whole-cell patch clamp, potentiation of GABA. For orientation: The patch-clamp technique gives a direct electrical read-out from membranes.
Assay [2] has as its target T1, GABAA receptor α1β2γ2. Description: whole-cell patch clamp, potentiation of GABA-evoked currents at […].

T1 sequence (P14867 28-456): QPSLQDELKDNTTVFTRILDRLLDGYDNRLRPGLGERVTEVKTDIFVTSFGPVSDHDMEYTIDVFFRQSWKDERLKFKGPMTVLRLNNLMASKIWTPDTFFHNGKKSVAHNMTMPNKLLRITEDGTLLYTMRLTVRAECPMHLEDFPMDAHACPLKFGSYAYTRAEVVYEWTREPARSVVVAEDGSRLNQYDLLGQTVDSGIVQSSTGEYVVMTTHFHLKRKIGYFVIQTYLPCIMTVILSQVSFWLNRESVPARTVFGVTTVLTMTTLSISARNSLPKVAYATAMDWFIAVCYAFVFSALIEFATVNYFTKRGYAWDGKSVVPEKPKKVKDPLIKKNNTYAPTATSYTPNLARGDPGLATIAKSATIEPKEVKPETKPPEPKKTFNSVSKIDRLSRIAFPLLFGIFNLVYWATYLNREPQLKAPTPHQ
T1 sequence (P47870 26-512): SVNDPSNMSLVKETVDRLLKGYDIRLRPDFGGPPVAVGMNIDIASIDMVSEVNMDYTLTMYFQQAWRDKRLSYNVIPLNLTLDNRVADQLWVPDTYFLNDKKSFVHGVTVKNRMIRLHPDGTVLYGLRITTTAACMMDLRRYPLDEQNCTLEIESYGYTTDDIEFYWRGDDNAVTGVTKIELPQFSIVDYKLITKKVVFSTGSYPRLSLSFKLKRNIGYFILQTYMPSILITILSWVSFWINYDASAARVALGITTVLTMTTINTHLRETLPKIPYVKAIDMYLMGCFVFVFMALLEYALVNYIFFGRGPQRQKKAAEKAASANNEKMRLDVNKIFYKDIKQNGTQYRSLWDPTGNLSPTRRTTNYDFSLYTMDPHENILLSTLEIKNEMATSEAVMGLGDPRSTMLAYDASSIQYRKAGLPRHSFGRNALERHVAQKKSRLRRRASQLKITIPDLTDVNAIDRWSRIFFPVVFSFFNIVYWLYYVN
T1 sequence (P18507 40-475 partner): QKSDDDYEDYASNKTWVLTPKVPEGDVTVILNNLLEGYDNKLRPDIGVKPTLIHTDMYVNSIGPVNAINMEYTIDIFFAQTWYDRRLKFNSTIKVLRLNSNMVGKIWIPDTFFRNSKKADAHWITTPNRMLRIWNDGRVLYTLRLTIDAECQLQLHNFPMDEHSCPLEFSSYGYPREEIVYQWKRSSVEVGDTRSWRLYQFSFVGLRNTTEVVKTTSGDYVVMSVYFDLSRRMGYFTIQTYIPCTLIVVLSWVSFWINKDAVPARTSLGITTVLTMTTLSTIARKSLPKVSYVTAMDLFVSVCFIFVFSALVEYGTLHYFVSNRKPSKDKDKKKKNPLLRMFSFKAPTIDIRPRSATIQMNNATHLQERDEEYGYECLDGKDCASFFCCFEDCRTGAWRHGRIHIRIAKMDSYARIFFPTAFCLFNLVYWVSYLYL
Sequence of GABAA receptor α4β3δ (P48169 36-554): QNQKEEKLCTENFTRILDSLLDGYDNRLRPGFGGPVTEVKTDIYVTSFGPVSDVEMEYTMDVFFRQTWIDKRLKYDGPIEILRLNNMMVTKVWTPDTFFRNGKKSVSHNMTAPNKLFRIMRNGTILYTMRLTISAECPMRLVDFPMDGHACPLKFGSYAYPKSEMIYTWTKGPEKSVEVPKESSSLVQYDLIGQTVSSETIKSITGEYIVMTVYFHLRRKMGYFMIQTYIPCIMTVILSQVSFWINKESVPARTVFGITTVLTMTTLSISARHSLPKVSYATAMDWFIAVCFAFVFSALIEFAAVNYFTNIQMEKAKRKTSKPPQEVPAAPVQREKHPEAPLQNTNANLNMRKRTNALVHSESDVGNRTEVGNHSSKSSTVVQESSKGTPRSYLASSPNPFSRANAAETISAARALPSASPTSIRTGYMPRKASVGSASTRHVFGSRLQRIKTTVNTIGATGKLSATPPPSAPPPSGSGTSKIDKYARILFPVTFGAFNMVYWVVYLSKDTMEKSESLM
Sequence of GABAA receptor α4β3δ (P28472 26-473): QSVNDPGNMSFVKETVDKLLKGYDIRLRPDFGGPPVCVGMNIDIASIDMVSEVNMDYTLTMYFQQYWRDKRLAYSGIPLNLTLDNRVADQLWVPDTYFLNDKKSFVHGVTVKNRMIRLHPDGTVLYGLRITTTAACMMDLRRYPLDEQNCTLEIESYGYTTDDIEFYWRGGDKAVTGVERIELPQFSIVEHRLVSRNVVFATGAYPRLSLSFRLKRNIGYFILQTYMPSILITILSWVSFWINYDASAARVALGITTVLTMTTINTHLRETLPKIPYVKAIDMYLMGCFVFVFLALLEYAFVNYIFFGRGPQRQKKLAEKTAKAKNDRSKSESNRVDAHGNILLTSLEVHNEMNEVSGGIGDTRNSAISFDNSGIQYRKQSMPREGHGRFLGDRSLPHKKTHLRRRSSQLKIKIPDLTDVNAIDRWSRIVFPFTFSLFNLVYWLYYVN
Sequence of GABAA receptor α4β3δ (O14764 25-452 partner): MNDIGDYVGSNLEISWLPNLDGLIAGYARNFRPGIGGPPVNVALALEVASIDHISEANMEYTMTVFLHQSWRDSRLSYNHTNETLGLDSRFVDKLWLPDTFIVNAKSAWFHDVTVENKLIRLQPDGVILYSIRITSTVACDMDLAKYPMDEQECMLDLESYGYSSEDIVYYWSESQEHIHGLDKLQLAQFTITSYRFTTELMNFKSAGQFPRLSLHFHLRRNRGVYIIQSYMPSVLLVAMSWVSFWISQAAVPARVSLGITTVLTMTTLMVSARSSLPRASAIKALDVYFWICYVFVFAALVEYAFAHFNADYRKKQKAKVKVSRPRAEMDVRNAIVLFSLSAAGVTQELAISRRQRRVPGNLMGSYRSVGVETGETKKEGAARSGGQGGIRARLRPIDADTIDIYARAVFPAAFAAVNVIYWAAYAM

In the case of `CC(=O)[C@H]1CC[C@H]2[C@@H]3CC[C@H]4C[C@H](O)CC[C@]4(C)[C@H]3CC[C@]12C` [allopregnanolone], the figures for the EC50 at GABAA receptor α4β3δ and on GABAA receptor α1β2γ2 [1] were 80 nM and 185 nM, respectively.

With SGE-872, the “% potentiation at 10 μM” value at GABAA receptor α1β2γ2 [2] came out at 744 % potentiation at 10 µM. Moreover, at GABAA receptor α4β3δ, the EC50 stood at 160 nM.

The term EC50 denotes the concentration giving half of the maximal effect.
